Results published in patent US9682126B2, “Postprandial gastrokinetic agent” (ZERIA PHARMACEUTICAL CO., LTD., priority 2013, dated 2017).
Like-named read-outs stand apart in the source and are kept apart here. Ends that are not written are not given here. * marks the point of attachment. Octanoyl = CCCCCCCC(=O)*

How the values were obtained:
[1] = tested on: subjects; conditions: cited from earlier work
[2] = tested on: Suncus murinus; experiment: Postprandial motility by co-administration of ghrelin and motilin, ΔMI (Example 3); assay type: in vivo
Description: Each of Suncus motilin (Scrum Inc., Tokyo, Japan) and human ghrelin (Asubio Pharma Co., Ltd., Hyogo, Japan) was dissolved in PBS containing 0.1% bovine serum albumin.
Suncus murinus (male, outbred KAT strain, 7 to 39 weeks old, 56 to 91 g) was used for the experiment. The Each animal was bred in a plastic cage provided with an empty can as a nest box under the following conditions: temperature at 23±2° C., illumination between 8:00 and 20:00, and free intake of commercial trout feed (SP, Nippon Formula Feed Mfg Co., Ltd., Yokohama, Japan).
After 3 hours of fasting, Suncus murinus was anesthetized by an intraperitoneal injection of pentobarbital sodium (50 mg/kg). Through a midline incision, the stomach was exposed outside the body, and a force transducer was fixed via suture in the circular muscle direction of the body of stomach. The wire extending from the force transducer was inserted through the abdominal wall, passed under the skin, and exposed at the back of the neck.
An intravenous catheter was inserted in the right jugular, and extracorporeally fixed to the back. The catheter was filled with heparinized saline (100 units/mL) to prevent clotting.
Each of the operated Suncus murinus was allowed to recover for several days.
Drug administration and measurement of gastric motility were performed in the conscious, free-moving state without anesthesia.
2 g of feed was given to each Suncus murinus fastened (for 8 to 10 hours) for 10 minutes. After the intake of feed for 10 minutes, ghrelin (50, 1,000, or 3,000 ng/kg), motilin (300, 500, 1,000, or 3,000 ng/kg), or a mixed solution of ghrelin (15 or 50 ng/kg) and motilin (100, 200, or 300 ng/kg) was intravenously administered through a jugular vein catheter rapidly.
Amplified analog signals were converted into digital signals by an analog-to-digital converter (ADC-20, Pico Technology Ltd, St Neots, UK), and the digital signals were recorded on a computer.
Phase III contractions of MMC in conscious Suncus murinus were defined on the basis of those in dogs and humans (that is, clustered contractions with an amplitude of 8 g or more that lasts for 5 minutes or more).
Gastric motility was quantitated using a motility index (ΔMI). A motility index (ΔMI) based on a drug was calculated using the following equation. ΔMI (%)=(A−C)/B×100 A: AUC of contractions for 10 minutes during which the drug was administered B: AUC of 10-minute spontaneous phase III contractions appeared before administration of the drug C: (AUC of contractions appeared for 5 minutes between 5 and 10 minutes after the intake of feed)×2 (2) Results (FIG. 9) A. Action of Ghrelin Alone

[3] = tested on: Suncus murinus; experiment: Postprandial gastric motility, force transducer on stomach, motility index MI (Example 1); assay type: in vivo; conditions: ghrelin 50 ng/kg iv after 10-min feed intake
Description: Effects of administration of each of ghrelin and motilin and co-administration of ghrelin and motilin on postprandial gastric motility in Suncus murinus were studied. Each of Suncus motilin (Scrum Inc., Tokyo, Japan) and human ghrelin (Asubio Pharma Co., Ltd., Hyogo, Japan) was dissolved in phosphate buffered saline (PBS) containing 0.1% bovine serum albumin. Suncus murinus (male, outbred KAT strain, 8 to 9 weeks old, 73 to 90 g) was used for the experiment. Each animal was bred in a plastic cage provided with an empty can as a nest box under the following conditions: temperature at 23±2° C., illumination between 8:00 and 20:00, and free intake of commercial trout feed (SP, Nippon Formula Feed Mfg Co., Ltd., Yokohama, Japan). After 3 hours of fasting, Suncus murinus was anesthetized by an intraperitoneal injection of pentobarbital sodium (50 mg/kg). Through a midline incision, the stomach was exposed outside the body, and a force transducer was fixed via suture in the circular muscle direction of the body of stomach. […] Amplified analog signals were converted into digital signals by an analog-to-digital converter (ADC-20, Pico Technology Ltd, St Neots, UK), and the digital signals were recorded on a computer. […] Gastric motility was quantitated using a motility index (MI). A motility index (MI) based on a drug was calculated using the following equation. […]

[4] = tested on: isolated stomach of Suncus murinus; conditions: ghrelin alone, even at a high dose, in vitro; cited from earlier work
[5] = tested on: Suncus murinus; experiment: Gastric motility in interdigestive period, sham-operated vs vagotomized (Example 2); assay type: in vivo; conditions: for amplitude of spontaneous phase II contractions: ghrelin 0.1, 0.3, 1, 3, or 10 μg/kg/min iv over 10 minutes in phase II
Description: Each of Suncus motilin (Scrum Inc., Tokyo, Japan) and human ghrelin (Asubio Pharma Co., Ltd., Hyogo, Japan) were dissolved in PBS containing 0.1% bovine serum albumin. Suncus murinus (male, outbred KAT strain, 7 to 15 weeks old, 60 to 100 g) was used for the experiment. Each animal was bred in a plastic cage provided with an empty can as a nest box under the following conditions: temperature at 23±2° C., illumination between 8:00 and 20:00, and free intake of commercial trout feed (SP, Nippon Formula Feed Mfg Co., Ltd., Yokohama, Japan). After 3 hours of fasting, Suncus murinus was anesthetized by an intraperitoneal injection of pentobarbital sodium (50 mg/kg). Through a midline incision, the stomach was exposed outside the body, and a force transducer was fixed via suture in the circular muscle direction of the body of stomach. The wire extending from the force transducer was inserted through the abdominal wall, passed under the skin, and exposed at the back of the neck. Thereafter, truncal vagotomy was performed. A lower portion of the esophagus was exposed, both branches of the vagus nerve were isolated, and about 3 mm of the vagus nerve was excised above the hepatic branch and the celiac branch. For sham-operated Suncus murinus, the vagus nerve was exposed, but not excised. An intravenous catheter was inserted in the right jugular, and extracorporeally fixed to the back. The catheter was filled with heparinized saline (100 units/mL) to prevent clotting. From 2 days after the operation, the gastric motility was recorded. Administration of motilin was initiated 10 minutes after completion of spontaneous phase III. Synthesized suncus motilin was continuously injected at 50 ng/kg/min over 10 minutes, and the continuously injected amount was 50 μL/100 g BW/min. Administration of ghrelin was initiated 10 minutes after completion of spontaneous phase II. […] Amplified analog signals were converted into digital signals by an analog-to-digital converter (ADC-20, Pico Technology Ltd, St Neots, UK), and the digital signals were recorded on a computer. Phase III contractions of MMC in conscious Suncus murinus were defined on the basis of those in dogs and humans (that is, clustered contractions with an amplitude of 8 g or more that lasts for 5 minutes or more). Gastric motility was quantitated using a motility index (MI). A motility index (MI) based on a drug was calculated using the following equation. MI (%)=A/B×100 A: AUC of contractions for 10 minutes during which the drug was administered B: […] Statistical analysis After ANOVA, Student's t test was performed.

[6] = ghrelin 50 ng/kg iv after feed intake
[7] = ghrelin 1,000 ng/kg iv after feed intake
[8] = ghrelin 3,000 ng/kg iv after feed intake

| Compound | gastric emptying ([1]; mitemcinal administered to fasting subjects) | Motility Index (ΔMI) [2, 6] | contractions of the body of the stomach [2, 6] | Motility Index (ΔMI) [2, 7] | contractions of the body of the stomach [2, 7] | Motility Index (ΔMI) [2, 8] | contractions of the body of the stomach [2, 8] | contractions of the body of the stomach [3] | gastric contractions [4] | MI during administration of ghrelin, sham-operated compared with vagotomized ([5]; phase II of MMC, fasted) | amplitude of spontaneous phase II contractions ([5]; sham-operated) | amplitude of spontaneous phase II contractions ([5]; vagotomized) | gastric emptying ([1]; continuous intravenous or massive administration of ghrelin after food intake, healthy subjects and patients with diabetes) |
| --- | --- | --- | --- | --- | --- | --- | --- | --- | --- | --- | --- | --- | --- |
| CC[C@H]1OC(=O)[C@H](C)[C@@H](O[C@H]2C[C@@](C)(OC)[C@@H](O)[C@H](C)O2)[C@H](C)[C@@H](O[C@@H]2O[C@H](C)C[C@H](N(C)C(C)C)[C@H]2O)[C@@]2(C)CC(C)=C(O2)[C@H](C)C(=O)[C@]1(C)OC [mitemcinal] | enhances gastric emptying |  |  |  |  |  |  |  |  |  |  |  |  |
| ghrelin: human ghrelin (Asubio Pharma); 28-amino acid residue peptide, hydroxyl group of serine at position 3 esterified by octanoic acid (GSS(Octanoyl)FLSPEHQRVQQRKESKKPPAKLQPR; UniProt Q9UBU3 24-51, looked up) |  | About 2.8% | did not induce contractions of the body of the stomach | About 7.6% | did not induce contractions of the body of the stomach | About 0.03% | did not induce contractions of the body of the stomach | did not induce contractions of the body of the stomach | does not accelerate gastric contractions | higher | amplified the amplitude of spontaneous phase II contractions | did not change the amplitude of spontaneous phase II contractions | accelerates gastric emptying |
